Assay results published in patent EP2769738B1, “Conjugated TLR7 and/or TLR8 and TLR2 polycationic agonists” (Invivogen, priority 2013, dated 2014).
“And” between values parts separate entries of the source, which are not always exact repeats. Equal values may be shown once.

Test: Determination of nanoparticle (lipoplex) size by dynamic light scattering
Type: physicochemical
Details: ratio 3:24 (w:w); for Conformity (C)/ Non-conformity (NC) / Mean Diameter (nm): complexes with pDNA; for Mean Diameter (nm): dynamic light scattering at 25°C; for Mean Diameter (nm) / PDI: triplicate measurements; for PDI: polydispersity index of complexes with pDNA, 25°C
Method: • 1. Preparative HPLC Method: Unless otherwise indicated, the compounds described herein were purified by RP-MPLC ARMEN® Spot Flash Liquid Chromatography (ARMEN Instrument, Saint Ave, France) on a preparative column (SVF D26) packed with 25-40 µm C18 resin (Merck chimie SAS), by applying a linear gradient of 0-10% MeCN in NH4OAc (10 mM) solution (pH = 9) over 60 min at a 15 mL/min flow rate. The purification was monitored at 254 nm. Suitable fractions were pooled and lyophilised. • 2. Proton NMR Spectra: Unless otherwise indicated, all ^1H NMR spectra were run on a Bruker series 300 MHz instrument. Where so characterized, all observed protons are reported as parts-per-million (ppm) downfield from tetramethylsilane (TMS) or other internal reference in the appropriate solvent indicated. NMR spectra were recorded on a Brucker 300 spectrometer. For ^1H (300 MHz) spectra δ values were referenced to CDCI3-d1 (7.26 ppm), DMSO- d6 (2.50 ppm), D2O-d2 (4.79 ppm) or MeOD-d4 (3.31 ppm). The peak patterns are indicated as follows: s: singlet, sl: large singlet, d: doublet, t: triplet, q: quartet, m: multiplet. • 3. Mass Spectra (MS): Analyses were run on an Agilent Model 6130 quadrupole MS. Unless otherwise indicated, all mass spectral data for starting materials, intermediates and/or exemplary compounds are reported as mass/charge (m/z), having an (M+H)^+ molecular ion. The molecular ion reported was obtained by electrospray detection method (commonly referred to as an ESI MS). Compounds having an isotopic atom, such as bromine and the like, are generally reported according to the detected isotopic pattern, as appreciated by those skilled in the art. • 4. Particle size: Particle size was determined using a Malvern Nanosizer (Malvern, Worcestershire, UK) and Malvern ZETASIZER.RTM. (Malvern, Worcestershire, UK). • 5. Naming Convention The compounds disclosed and described herein have been named using the naming convention provided with Chem-Draw Ultra 11.0 software, available in Chem. Office. In some instances, compounds were named with the term "spermine" inserted where appropriate. For example, where the spermine is substituted with Boc, "N1,N5,N10-TriBoc-spermine" is added to the Chem-Draw nomenclature in the appropriate place. Chem-Draw utilizes the ISIS Draw software compound naming convention, as appreciated by those skilled in the art.
For pDNA:TLR7-TLR2 polyamine molecules complexes, a ratio pDNA:TLR7-TLR2 polyamine molecules of 3:24 (w:w) was prepared in serum-free culture medium or in 5% glucose. The TLR7-TLR2 conjugated compound of interest was prediluted in serum-free culture medium or in 5% glucose and incubated for 5 minutes at room temperature, prior to the addition of an endotoxin-free, salt-free preparation of pDNA. In these experiments, the pBsr2pCpGLacZh plasmid was used in the pDNA:TLR7-TLR2 polyamine molecule complexes. The pDNA:TLR7-TLR2 polyamine molecule mixtures were incubated at room temperature for 30 minutes to allow the formation of the complex. The control used in these experiments was the cationic lipid transfection agent LyoVec™ (InvivoGen) prepared in a similar manner.
In order to confirm that TLR7-TLR2 polyamine molecules complex DNA, lipoplex size was determined. The physical characterization of complex was achieved by dynamic light scattering using the analytical equipment for laser diffraction Zetasizer Nano-ZS (Malvern). pDNA:TLR7-TLR2 polyamine molecule complexes were prepared as described above. Subsequently, 50µl of pDNA: TLR7-TLR2 polyamine molecule complexes were placed into a disposable sizing cuvette and measurements were made under conditions defined according to manufacturer's instructions. The measurements were made at 25°C in triplicate and a size distribution report was obtained. […]

| SMILES | Conformity (C)/ Non-conformity (NC) | Mean Diameter (nm) | PDI |
| --- | --- | --- | --- |
| CCCCCCCCCCCCCCCC(=O)N[C@@H](CSCC(COC(=O)CCCCCCCCCCCCCCC)OC(=O)CCCCCCCCCCCCCCC)C(=O)N[C@@H](CO)C(=O)N[C@@H](CCCCNC(=O)c1ccc(Cn2c(O)nc3c(N)nc(NCCCC)nc32)cc1)C(=O)N[C@@H](CCCCN)C(=O)N[C@@H](CCCCN)C(=O)N[C@@H](CCCCN)C(=O)O (stereo partly drawn) [CL537, (2S,5S,8S,11S,14S,17R)-11-(4-(4-((6-amino-2-(butylamino)-8-hydroxy-9H-purin-9-yl)methyl)benzamido)butyl)-2,5,8-tris(4-aminobutyl)-14-(hydroxymethyl)-4,7,10, 13,16,24-hexaoxo-17-palmitamido-21-(palmitoyloxy)-23-oxa-19-thia-3,6,9,12,15-pentaazanonatria contan-1-oic acid] | NC (larger sizes were considered to show aggregates or non-conformity) | 198,1 nm and 203,5 nm and 219,3 nm | 0,704 and 0,618 and 0,626 |
| CCCCCCCCCCCCCCCC(=O)N[C@@H](CSCC(COC(=O)CCCCCCCCCCCCCCC)OC(=O)CCCCCCCCCCCCCCC)C(=O)N[C@@H](CO)C(=O)N[C@@H](CCCCN)C(=O)N[C@@H](CCCCN)C(=O)N[C@@H](CCCCNC(=O)c1ccc(Cn2c(O)nc3c(N)nc(NCCCC)nc32)cc1)C(=O)N[C@@H](CCCCN)C(=O)O (stereo partly drawn) [CL535, (2S,5S,8S,11S,14S,17R)-5-(4-(4-((6-amino-2-(butylamino)-8-hydroxy-9H-purin-9-yl)methyl)benzamido)butyl)-2,8,11-tris(4-aminobutyl)-14-(hydroxymethyl)-4,7,10, 13,16,24-hexaoxo-17-palmitamido-21-(palmitoyloxy)-23-oxa-19-thia-3,6,9,12,15-pentaazanonatriacontan-1-oic acid] | NC (larger sizes were considered to show aggregates or non-conformity) | 229,5 nm and 232,3 nm and 226,8 nm | 0,351 and 0,336 and 0,396 |
| CCCCCCCCCCCCCCCC(=O)OCC(CSC[C@H](N)C(=O)N[C@@H](CO)C(=O)N[C@@H](CCCCNC(=O)c1ccc(Cn2c(O)nc3c(N)nc(NCCCC)nc32)cc1)C(=O)N[C@@H](CCCCN)C(=O)N[C@@H](CCCCN)C(=O)N[C@@H](CCCCN)C(=O)O)OC(=O)CCCCCCCCCCCCCCC (stereo partly drawn) [CL533, (2S,5S,8S,11S,14S,17R)-17-amino-11-(4-(4-((6-amino-2-(butylamino)-8-hydroxy-9H-purin-9-yl)methyl)benzamido)butyl)-2,5,8-tris(4-aminobutyl)-14-(hydroxylmethyl)-4,7,10,13,16,24-hexaoxo-21-(palmitoyloxy)-23-oxa-19-thia-3,6,9,12,15-pentaazanonatria contan-1-oic acid] | C (ranged between 140 and 200 nm in diameter were considered to show conformity) | 140,4 nm and 149,8 nm and 141,5 nm | 0,195 and 0,198 and 0,185 |
| CCCCCCCCCCCCCCCC(=O)OCC(CSC[C@H](N)C(=O)N[C@@H](CO)C(=O)N[C@@H](CCCCN)C(=O)N[C@@H](CCCCN)C(=O)N[C@@H](CCCCNC(=O)c1ccc(Cn2c(O)nc3c(N)nc(NCCCC)nc32)cc1)C(=O)N[C@@H](CCCCN)C(=O)O)OC(=O)CCCCCCCCCCCCCCC (stereo partly drawn) [CL530, (2S,5S,8S,11S,14S,17R)-17-amino-5-(4-(4-((6-amino-2-(butylamino)-8-hydroxy-9H-purin-9-yl)methyl)benzamido)butyl)-2,8,11-tris(4-aminobutyl)-14-(hydroxymethyl) -4,7,10,13,16,24-hexaoxo-21-(palmitoyloxy)-23-oxa-19-thia-3,6,9,12,15-pentaaza nonatriacontan-1-oic acid] | NC (larger sizes were considered to show aggregates or non-conformity) | 188,0 nm and 187,6 nm and 213,1 nm | 0,332 and 0,351 and 0,315 |
| CCCCCCCCCCCCCCCC(=O)N[C@@H](CSCC(COC(=O)CCCCCCCCCCCCCCC)OC(=O)CCCCCCCCCCCCCCC)C(=O)N[C@@H](CO)C(=O)N[C@@H](CCCCN)C(=O)N[C@@H](CCCCNC(=O)c1ccc(Cn2c(O)nc3c(N)nc(NCCCC)nc32)cc1)C(=O)N[C@@H](CCCCN)C(=O)N[C@@H](CCCCN)C(=O)O (stereo partly drawn) [CL536, (2S,5S,8S,11S,14S,17R)-8-(4-(4-((6-amino-2-(butylamino)-8-hydroxy-9H-purin-9-yl)methyl)benzamido)butyl)-2,5,11-tris(4-aminobutyl)-14-(hydroxymethyl)-4,7,10, 13,16,24-hexaoxo-17-palmitamido-21-(palmitoyloxy)-23-oxa-19-thia-3,6,9,12,15-pentaazanonatriacontan-1-oic acid] | NC (larger sizes were considered to show aggregates or non-conformity) | 231,9 nm and 236,1 nm and 225,8 nm | 0,465 and 0,583 and 0,65 |
| CCCCCCCCCCCCCCCC(=O)OCC(CSC[C@H](N)C(=O)N[C@@H](CO)C(=O)N[C@@H](CCCCN)C(=O)N[C@@H](CCCCNC(=O)c1ccc(Cn2c(O)nc3c(N)nc(NCCCC)nc32)cc1)C(=O)N[C@@H](CCCCN)C(=O)N[C@@H](CCCCN)C(=O)O)OC(=O)CCCCCCCCCCCCCCC (stereo partly drawn) [CL531, (2S,5S,8S,11S,14S,17R)-17-amino-8-(4-(4-((6-amino-2-(butylamino)-8-hydroxy-9H-purin-9-yl)methyl)benzamido)butyl)-2,5,11-tris(4-aminobutyl)-14-(hydroxymethyl) -4,7,10,13,16,24-hexaoxo-21-(palmitoyloxy)-23-oxa-19-thia-3,6,9,12,15-pentaaza nonatriacontan-1-oic acid] | C (ranged between 140 and 200 nm in diameter were considered to show conformity) | 145,0 nm and 143,8 nm and 140,1 nm | 0,144 and 0,153 and 0,138 |
